The values below come from patent publication US11109593B2, “Isoxazolin-5-one derivative and herbicide containing same as active ingredient” (HOKKO CHEMICAL INDUSTRY CO., LTD., priority 2017, dated 2021).

Structures are written as SMILES.

Assay type in all cases: in vivo
The test system of assay [1] is Echinochloa crus-galli. As to the kind of experiment: Test Example 2: herbicidal effect test by treatment during growing period in paddy rice cultivation (seven days after seeding). The following applies: 120 g/10a active ingredient, assessed 14 days after treatment, dry weight vs untreated area. The method in brief: (§1)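 Greenhouse flooded-pot test, seeds sown in puddled paddy soil; emulsion applied into water 7 d after seeding, 120 g a.i./10 a. Dry-weight-based herbicidal rate at 14 d, n=2.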

Assay [2] deals with Scirpus juncoides. The description is as above. The following applies: 120 g/10a active ingredient, assessed 14 days after treatment, dry weight vs untreated area. The method in brief: as §1
Assay [3] concerns broad leaf weeds (Lindernia pyxidaria and Monochoria vaginalis). Described as above. The following applies: 120 g/10a active ingredient, assessed 14 days after treatment, dry weight vs untreated area. A digest of the protocol: as §1
The subject of assay [4] is Echinochloa crus-galli. As to the kind of experiment: Test Example 1: herbicidal effect test by treatment of rice paddy soil (immediately after seeding). The following applies: 120 g/10a active ingredient, dry weight vs untreated area, 14 days after treatment. A digest of the protocol:
(§2)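 Application occurs immediately after seeding, with diluted emulsion added to paddy water (about 3 cm deep) over puddled, fertilized soil at 120 g active ingredient per 10 ares. Herbicidal rate is calculated from mean dry weight against untreated controls 14 days later.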

The subject of assay [5] is Scirpus juncoides. The assay is described as above. To be noted: 120 g/10a active ingredient, dry weight vs untreated area, 14 days after treatment. A digest of the protocol:
as §2

For assay [6], the system named is broad leaf weeds (Lindernia pyxidaria and Monochoria vaginalis). The description is as above. The following applies: 120 g/10a active ingredient, dry weight vs untreated area, 14 days after treatment. A digest of the protocol: as §2
For assay [7], the system named is Echinochloa crus-galli. As to the kind of experiment: Test Example 3: herbicidal effect test by treatment of dry field farming soil (one day after seeding). To be noted: 120 g/10a active ingredient, evaluated 14 days after treatment. A digest of the protocol:
(§3)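 Compound emulsions are sprayed on the soil surface one day after sowing (120 g a.i. per 10 ares) before weeds emerge. Effect is expressed as percent dry-weight reduction versus untreated controls 14 days post-treatment.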

Assay [8] has as its system Amaranthus viridis. Described as above. The following applies: 120 g/10a active ingredient, evaluated 14 days after treatment. The method in brief: as §3
In assay [9] the test system is Chenopodium album. The assay is described as above. The following applies: 120 g/10a active ingredient, evaluated 14 days after treatment. The method in brief:
as §3

The test system of assay [10] is southern crabgrass. Described as above. To be noted: 120 g/10a active ingredient, evaluated 14 days after treatment. The method in brief:
as §3

The test system of assay [11] is Echinochloa crus-galli. Kind of assay: Test Example 4: herbicidal effect test by treatment of leave and stem in dry field farming (seven days after seeding). To be noted: 120 g/10a active ingredient; emulsion sprayed seven days after seeding; evaluated 14 days after treatment. The method in brief: (§4)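 Weeds were seeded at 20 seeds per species into the top 1 cm of alluvial upland soil in pots, then sprayed 7 days after seeding with water-diluted emulsifiable concentrate at 100 L/10 a, giving 120 g active ingredient/10 a. Duplicate pots; herbicidal rate (%) was 14 days post-treatment, from dry weight versus untreated.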

The test system of assay [12] is Amaranthus viridis. The assay is described as above. The following applies: 120 g/10a active ingredient; emulsion sprayed seven days after seeding; evaluated 14 days after treatment. The method in brief: as §4
The subject of assay [13] is Chenopodium album. The assay is described as above. To be noted: 120 g/10a active ingredient; emulsion sprayed seven days after seeding; evaluated 14 days after treatment. The method in brief: as §4
For assay [14], the system named is southern crabgrass. The description is as above. To be noted: 120 g/10a active ingredient; emulsion sprayed seven days after seeding; evaluated 14 days after treatment. The method in brief:
as §4

Take `Cc1c(Cc2ccccc2NS(=O)(=O)C(F)(F)F)c(=O)on1CC(C)(C)C` [Compound 1-106]: the “Herbicidal rate (%) Echinochloa crus-galli” value in the assay with Echinochloa crus-galli [1] and with Echinochloa crus-galli [4] was 90% each time. Besides, the “Herbicidal rate (%) Scirpus juncoides” value with Scirpus juncoides [2] and in the assay with Scirpus juncoides [5] was 90% throughout. In addition, the “Herbicidal rate (%) Lindernia pyxidaria” value in assay [3] and in assay [6] was 90% throughout. In addition, the “Herbicidal rate (%) Monochoria vaginalis” value in assay [3] and in assay [6] was 90% each time. Moreover, the “herbicidal rate, Echinochloa crus-galli” value with Echinochloa crus-galli [7] was determined as 90%. Further, the “herbicidal rate, Amaranthus viridis” value with Amaranthus viridis [8] was 90%. Moreover, the “herbicidal rate, Chenopodium album” value with Chenopodium album [9] worked out at 90%. The “herbicidal rate, southern crabgrass” value in the assay with southern crabgrass [10] turned out to be 90%. The “herbicidal effect (herbicidal rate), Echinochloa crus-galli” value in the assay with Echinochloa crus-galli [11] stood at 90%. For the same molecule, the “herbicidal effect (herbicidal rate), Amaranthus viridis” value (“herbicidal effect … Amaranthus viridis” for short) in the assay with Amaranthus viridis [12] was 40%. In addition, the “herbicidal effect (herbicidal rate), Chenopodium album” value (“herbicidal effect … Chenopodium album” for short) in the assay on Chenopodium album [13] is 40%. For the same molecule, the “herbicidal effect (herbicidal rate), southern crabgrass” value (“herbicidal effect … southern crabgrass” below) in the assay on southern crabgrass [14] came out at 90%.
In the case of `CCCC(C)n1oc(=O)c(Cc2ccccc2NS(=O)(=O)C(F)(F)F)c1C` (stereo not shown) [Compound 1-109], the figures for the “Herbicidal rate (%) Echinochloa crus-galli” value with Echinochloa crus-galli [1] and in the assay on Echinochloa crus-galli [4] were 90% and 100%, respectively. For the same molecule, the “Herbicidal rate (%) Scirpus juncoides” value was 90% in the assay with Scirpus juncoides [2] and 100% with Scirpus juncoides [5]. Besides, the “Herbicidal rate (%) Lindernia pyxidaria” value in assay [3] worked out at 70%; in assay [6] it was 100%. The “Herbicidal rate (%) Monochoria vaginalis” value is 90% in assay [3] and 100% in [6]. Moreover, in the assay on Echinochloa crus-galli [7], the “herbicidal rate, Echinochloa crus-galli” value was found to be 90%. For the same molecule, in the assay on Amaranthus viridis [8], the “herbicidal rate, Amaranthus viridis” value was 60%. The “herbicidal rate, Chenopodium album” value in the assay on Chenopodium album [9] came out at 60%. In the assay on southern crabgrass [10], the “herbicidal rate, southern crabgrass” value was found to be 90%. Moreover, the “herbicidal effect (herbicidal rate), Echinochloa crus-galli” value in the assay with Echinochloa crus-galli [11] turned out to be 90%. Besides, the “herbicidal effect … Amaranthus viridis” value in the assay on Amaranthus viridis [12] came to 70%. For the same molecule, the “herbicidal effect … Chenopodium album” value with Chenopodium album [13] was found to be 50%. Also, the “herbicidal effect … southern crabgrass” value with southern crabgrass [14] is 80%.
For the molecule `CCCC(CC)n1oc(=O)c(Cc2ccccc2NS(=O)(=O)C(F)(F)F)c1C` (stereo not shown) [Compound 1-110], the “Herbicidal rate (%) Echinochloa crus-galli” value in the assay on Echinochloa crus-galli [1] and in the assay with Echinochloa crus-galli [4] was 100% each time. For the same molecule, the “Herbicidal rate (%) Scirpus juncoides” value in the assay on Scirpus juncoides [2] was found to be 80%; in the assay on Scirpus juncoides [5], 100%. Besides, the “Herbicidal rate (%) Lindernia pyxidaria” value in assay [3] was 80%; in [6] it was 100%. Also, the “Herbicidal rate (%) Monochoria vaginalis” value in assay [3] and in [6] was 100% throughout. Further, the “herbicidal rate, Echinochloa crus-galli” value with Echinochloa crus-galli [7] came to 90%. Also, the “herbicidal rate, Amaranthus viridis” value in the assay with Amaranthus viridis [8] worked out at 80%. In the assay on Chenopodium album [9], the “herbicidal rate, Chenopodium album” value stood at 80%. In addition, the “herbicidal rate, southern crabgrass” value in the assay with southern crabgrass [10] is on record as 90%. The “herbicidal effect (herbicidal rate), Echinochloa crus-galli” value in the assay with Echinochloa crus-galli [11] amounted to 90%. Besides, in the assay with Amaranthus viridis [12], the “herbicidal effect … Amaranthus viridis” value came to 60%. Also, the “herbicidal effect … Chenopodium album” value in the assay with Chenopodium album [13] was determined as 50%. Also, the “herbicidal effect … southern crabgrass” value in the assay on southern crabgrass [14] is reported as 90%.
For `CCC(C)Cn1oc(=O)c(Cc2ccccc2NS(=O)(=O)C(F)(F)F)c1C` (stereo not shown) [Compound 1-112], the “Herbicidal rate (%) Echinochloa crus-galli” value was 90% in the assay on Echinochloa crus-galli [1] and 100% in the assay with Echinochloa crus-galli [4]. Also, the “Herbicidal rate (%) Scirpus juncoides” value with Scirpus juncoides [2] and with Scirpus juncoides [5] was 90% each time. Also, the “Herbicidal rate (%) Lindernia pyxidaria” value came out at 80% in assay [3] and 90% in assay [6]. In addition, the “Herbicidal rate (%) Monochoria vaginalis” value in assay [3] turned out to be 80%; in [6] it was 90%. For the same molecule, the “herbicidal rate, Echinochloa crus-galli” value in the assay with Echinochloa crus-galli [7] is 90%. Also, the “herbicidal rate, Amaranthus viridis” value in the assay with Amaranthus viridis [8] was determined as 60%. In addition, in the assay with Chenopodium album [9], the “herbicidal rate, Chenopodium album” value came out at 80%. Further, the “herbicidal rate, southern crabgrass” value in the assay on southern crabgrass [10] was determined as 90%. Further, the “herbicidal effect (herbicidal rate), Echinochloa crus-galli” value with Echinochloa crus-galli [11] was found to be 90%. In the assay on Amaranthus viridis [12], the “herbicidal effect … Amaranthus viridis” value is 40%. Further, the “herbicidal effect … Chenopodium album” value in the assay with Chenopodium album [13] came out at 0%. Also, in the assay on southern crabgrass [14], the “herbicidal effect … southern crabgrass” value was 50%.
In the case of `CCC(CC)Cn1oc(=O)c(Cc2ccccc2NS(=O)(=O)C(F)(F)F)c1C` [Compound 1-113], the entries for the “Herbicidal rate (%) Echinochloa crus-galli” value with Echinochloa crus-galli [1] and in the assay on Echinochloa crus-galli [4] were 90% and 100%, respectively. Moreover, the entries for the “Herbicidal rate (%) Scirpus juncoides” value in the assay with Scirpus juncoides [2] and in the assay with Scirpus juncoides [5] were 90% and 100%, respectively. For the same molecule, the “Herbicidal rate (%) Lindernia pyxidaria” value in assay [3] amounted to 60%; in assay [6], 100%. In addition, the “Herbicidal rate (%) Monochoria vaginalis” value in assay [3] worked out at 80%; in assay [6], 100%. Further, the “herbicidal rate, Echinochloa crus-galli” value in the assay on Echinochloa crus-galli [7] came to 90%. The “herbicidal rate, Amaranthus viridis” value in the assay on Amaranthus viridis [8] worked out at 80%. Moreover, the “herbicidal rate, Chenopodium album” value with Chenopodium album [9] is on record as 100%. In the assay with southern crabgrass [10], the “herbicidal rate, southern crabgrass” value turned out to be 90%. In addition, in the assay with Echinochloa crus-galli [11], the “herbicidal effect (herbicidal rate), Echinochloa crus-galli” value stood at 80%. Further, the “herbicidal effect … Amaranthus viridis” value with Amaranthus viridis [12] is on record as 60%. Moreover, the “herbicidal effect … Chenopodium album” value in the assay with Chenopodium album [13] amounted to 40%. Moreover, the “herbicidal effect … southern crabgrass” value in the assay with southern crabgrass [14] is reported as 60%.
Consider `Cc1c(Cc2ccccc2NS(=O)(=O)C(F)(F)F)c(=O)on1CCC(C)C` [Compound 1-115], for which the entries for the “Herbicidal rate (%) Echinochloa crus-galli” value in the assay on Echinochloa crus-galli [1] and in the assay on Echinochloa crus-galli [4] were 90% and 100%, respectively. Also, the “Herbicidal rate (%) Scirpus juncoides” value with Scirpus juncoides [2] and with Scirpus juncoides [5] was 90% in each case. Also, the “Herbicidal rate (%) Lindernia pyxidaria” value in assay [3] is 80%; in assay [6] it was 90%. For the same molecule, the “Herbicidal rate (%) Monochoria vaginalis” value amounted to 80% in [3] and 90% in [6]. For the same molecule, the “herbicidal rate, Echinochloa crus-galli” value in the assay on Echinochloa crus-galli [7] came to 90%. In addition, in the assay with Amaranthus viridis [8], the “herbicidal rate, Amaranthus viridis” value is reported as 100%. Further, the “herbicidal rate, Chenopodium album” value with Chenopodium album [9] turned out to be 100%. The “herbicidal rate, southern crabgrass” value in the assay with southern crabgrass [10] turned out to be 90%. Further, in the assay with Echinochloa crus-galli [11], the “herbicidal effect (herbicidal rate), Echinochloa crus-galli” value is on record as 60%. Moreover, the “herbicidal effect … Amaranthus viridis” value with Amaranthus viridis [12] is 40%. Also, the “herbicidal effect … Chenopodium album” value in the assay with Chenopodium album [13] is given as 40%. In addition, the “herbicidal effect … southern crabgrass” value in the assay with southern crabgrass [14] is listed as 40%.
Regarding `Cc1c(Cc2ccccc2NS(=O)(=O)C(F)(F)F)c(=O)on1CCC(C)(C)C` [Compound 1-116], the “Herbicidal rate (%) Echinochloa crus-galli” value in the assay with Echinochloa crus-galli [1] and in the assay on Echinochloa crus-galli [4] was 90% throughout. For the same molecule, the “Herbicidal rate (%) Scirpus juncoides” value in the assay on Scirpus juncoides [2] and in the assay on Scirpus juncoides [5] was 90% each time. In addition, the entries for the “Herbicidal rate (%) Lindernia pyxidaria” value in assay [3] and in assay [6] were 60% and 90%, respectively. The “Herbicidal rate (%) Monochoria vaginalis” value in [3] and in assay [6] was 80% throughout. Besides, the “herbicidal rate, Echinochloa crus-galli” value with Echinochloa crus-galli [7] is 90%. In the assay on Amaranthus viridis [8], the “herbicidal rate, Amaranthus viridis” value was determined as 80%. Further, the “herbicidal rate, Chenopodium album” value in the assay on Chenopodium album [9] stood at 50%. Besides, the “herbicidal rate, southern crabgrass” value in the assay with southern crabgrass [10] is reported as 90%. For the same molecule, the “herbicidal effect (herbicidal rate), Echinochloa crus-galli” value in the assay on Echinochloa crus-galli [11] was 80%. Also, in the assay on Amaranthus viridis [12], the “herbicidal effect … Amaranthus viridis” value is on record as 60%. Also, the “herbicidal effect … Chenopodium album” value in the assay on Chenopodium album [13] is recorded as 50%. Besides, the “herbicidal effect … southern crabgrass” value in the assay on southern crabgrass [14] stood at 40%.
